In patent US20230000834A1, “PHYSIOLOGICALLY ACTIVE SUBSTANCE BOUND TO BIOTIN MOIETY, AND COMPOSITION FOR ORAL ADMINISTRATION INCLUDING SAME” (priority 2019, published 2023):
Non-standard residues stand in square brackets, D forms with d. No end group written: not given here. biotin moiety B2 = not defined here; biotin moiety B3 = not defined here; Aib = CC(C)(N)C(=O)O

What was measured:
[1] = tested on: blood glucose; test: Intraperitoneal glucose tolerance test after oral administration, Embodiments 5 and 6; type: in vivo, mice (C57BL/6); conditions: C57BL/6 mice; 500 μg/kg oral at -20 minutes; glucose 2 g/kg intraperitoneal
Experimental: To confirm glucose tolerance, Embodiments 5 and 6 were orally administered to mice, and blood glucose regulation efficacy was measured through an intraperitoneal glucose tolerance test.
To measure peritoneal glucose tolerance in an animal model, 100 μl of specimen (500 μg/kg, SEQ. ID. No. 2) was orally administered at −20 minutes to 9-week-old male mice (C57BL/6), followed by intraperitoneal injection of 200 μl glucose (2 g/kg) and observation of blood glucose changes in blood collected from the tail vein at −20, 0, 20, 40, 60, 90 and 120 minutes.
FIG. 6 is a graph illustrating blood glucose change after administering glucose to each specimen.

[2] = in vivo; conditions: SD, rat
Experimental: The specimens were administered by subcutaneous injection and orally in amounts of 20 μg/kg to experimental rats (SD rat) with a body weight of approximately 200 g, then blood serum was isolated and enzyme-linked immunosorbent assays were carried out to measure change in blood drug concentration over time. Blood samples were collected from the jugular vein. A polypeptide having the amino acid sequence of SEQ. ID. No. 6 was used as the control.

Row | Compound | glucose regulating ability (blood glucose change, FIG. 6) [1] | bioavailability [2] [%]
1 | Embodiment 5: polypeptide of SEQ. ID. No. 8 bonded to biotin moiety B2 at C30 (H[Aib]QGTFTSDYSKYLDEQAAKEFVQWLMNTC(biotin moiety B2); reading uncertain) | glucose regulating ability | –
2 | CC[C@H](C)[C@H](NC(=O)[C@H](CCC(=O)O)NC(=O)[C@H](CO)NC(=O)[C@@H](NC(=O)[C@@H](N)CO)C(C)C)C(=O)N[C@@H](CCC(N)=O)C(=O)N[C@@H](CC(C)C)C(=O)N[C@@H](CCSC)C(=O)N[C@@H](Cc1c[nH]cn1)C(=O)N[C@@H](CC(N)=O)C(=O)N[C@@H](CC(C)C)C(=O)NCC(=O)N[C@@H](CCCCN)C(=O)N[C@@H](Cc1c[nH]cn1)C(=O)N[C@@H](CC(C)C)C(=O)N[C@@H](CC(N)=O)C(=O)N[C@@H](CO)C(=O)N[C@@H](CCSC)C(=O)N[C@@H](CCC(=O)O)C(=O)N[C@@H](CCCNC(=N)N)C(=O)N[C@H](C(=O)N[C@@H](CCC(=O)O)C(=O)N[C@@H](Cc1c[nH]c2ccccc12)C(=O)N[C@@H](CC(C)C)C(=O)N[C@@H](CCCNC(=N)N)C(=O)N[C@@H](CCCCN)C(=O)N[C@@H](CCCCN)C(=O)N[C@@H](CC(C)C)C(=O)N[C@@H](CCC(N)=O)C(=O)N[C@@H](CC(=O)O)C(=O)N[C@H](C(=O)N[C@@H](Cc1c[nH]cn1)C(=O)N[C@@H](CC(N)=O)C(=O)N[C@@H](Cc1ccccc1)C(=O)N[C@@H](CSC1CC(=O)N(CCC(=O)NC(CCCCNC(=O)CCCCC2SCC3NC(=O)NC32)C(=O)NC(CCCCNC(=O)CCCCC2SCC3NC(=O)NC32)C(N)=O)C1=O)C(=O)O)C(C)C)C(C)C (stereo partly shown) [Embodiment 8] | – | 7.8
3 | CC[C@H](C)[C@H](NC(=O)[C@H](CCC(=O)O)NC(=O)[C@H](CO)NC(=O)[C@@H](NC(=O)[C@@H](N)CO)C(C)C)C(=O)N[C@@H](CCC(N)=O)C(=O)N[C@@H](CC(C)C)C(=O)N[C@@H](CCSC)C(=O)N[C@@H](Cc1c[nH]cn1)C(=O)N[C@@H](CC(N)=O)C(=O)N[C@@H](CC(C)C)C(=O)NCC(=O)N[C@@H](CCCCN)C(=O)N[C@@H](Cc1c[nH]cn1)C(=O)N[C@@H](CC(C)C)C(=O)N[C@@H](CC(N)=O)C(=O)N[C@@H](CO)C(=O)N[C@@H](CCSC)C(=O)N[C@@H](CCC(=O)O)C(=O)N[C@@H](CCCNC(=N)N)C(=O)N[C@H](C(=O)N[C@@H](CCC(=O)O)C(=O)N[C@@H](Cc1c[nH]c2ccccc12)C(=O)N[C@@H](CC(C)C)C(=O)N[C@@H](CCCNC(=N)N)C(=O)N[C@@H](CCCCN)C(=O)N[C@@H](CCCCN)C(=O)N[C@@H](CC(C)C)C(=O)N[C@@H](CCC(N)=O)C(=O)N[C@@H](CC(=O)O)C(=O)N[C@H](C(=O)N[C@@H](Cc1c[nH]cn1)C(=O)N[C@@H](CC(N)=O)C(=O)N[C@@H](Cc1ccccc1)C(=O)N[C@@H](CSC1CC(=O)N(CCC(=O)NC(CCCCNC(=O)CCCCC2SCC3NC(=O)NC32)C(=O)NC(CCCCNC(=O)CCCCC2SCC3NC(=O)NC32)C(=O)NC(CCCCNC(=O)CCCCC2SCC3NC(=O)NC32)C(N)=O)C1=O)C(=O)O)C(C)C)C(C)C (stereo partly shown) [Embodiment 9] | – | 4.9
4 | Embodiment 6: polypeptide of SEQ. ID. No. 8 bonded to biotin moiety B3 at C30 (H[Aib]QGTFTSDYSKYLDEQAAKEFVQWLMNTC(biotin moiety B3); reading uncertain) | glucose regulating ability | –
